Data as given in ChEMBL document CHEMBL1201862, “PubChem BioAssay data set” (2004).
Calls of active or inactive are those of the source.

Assays:
[1] = target: Peroxisome proliferator-activated receptor gamma/Nuclear receptor coactivator 1 (Homo sapiens, UniProt P37231); assay: (§1) TR-FRET dose response biochemical High Throughput Screening assay for agonists of the steroid receptor coactivator 1 (SRC-1) recruitment by the peroxisome proliferator-activated receptor gamma (PPAR gamma): non-selective agonists. [Related pubchem assays (depositor defined):AID1300, AID1808, AID504735, AID631]; assay type: protein assay
[2] = target: Peroxisome proliferator-activated receptor gamma/Nuclear receptor coactivator 3 (Homo sapiens, UniProt P37231); assay: as §1, with “3 (SRC-3)” for “1 (SRC-1)”, “assays: 1301 (Confirmation screen.), 1048 (Primary screen.)]” for “assays (depositor defined):AID1300, AID1808, AID504735, AID631]”; assay type: functional
Peroxisome proliferator-activated receptor gamma/Nuclear receptor coactivator 3, sequence (P37231 whole entry): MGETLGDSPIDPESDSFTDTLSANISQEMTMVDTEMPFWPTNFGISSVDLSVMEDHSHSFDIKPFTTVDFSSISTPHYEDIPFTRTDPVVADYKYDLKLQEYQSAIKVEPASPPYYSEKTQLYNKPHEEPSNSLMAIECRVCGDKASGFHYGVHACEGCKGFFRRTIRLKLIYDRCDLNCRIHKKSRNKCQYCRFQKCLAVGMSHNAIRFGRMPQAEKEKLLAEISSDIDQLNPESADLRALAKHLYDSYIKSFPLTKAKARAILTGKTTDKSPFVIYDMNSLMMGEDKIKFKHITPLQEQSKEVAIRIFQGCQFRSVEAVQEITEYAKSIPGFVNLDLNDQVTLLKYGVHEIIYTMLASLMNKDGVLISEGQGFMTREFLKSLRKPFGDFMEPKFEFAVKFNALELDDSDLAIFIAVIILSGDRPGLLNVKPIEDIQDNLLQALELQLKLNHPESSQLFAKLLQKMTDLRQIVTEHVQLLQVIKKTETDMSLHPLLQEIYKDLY
Peroxisome proliferator-activated receptor gamma/Nuclear receptor coactivator 3, sequence (Q9Y6Q9 whole entry, further chain): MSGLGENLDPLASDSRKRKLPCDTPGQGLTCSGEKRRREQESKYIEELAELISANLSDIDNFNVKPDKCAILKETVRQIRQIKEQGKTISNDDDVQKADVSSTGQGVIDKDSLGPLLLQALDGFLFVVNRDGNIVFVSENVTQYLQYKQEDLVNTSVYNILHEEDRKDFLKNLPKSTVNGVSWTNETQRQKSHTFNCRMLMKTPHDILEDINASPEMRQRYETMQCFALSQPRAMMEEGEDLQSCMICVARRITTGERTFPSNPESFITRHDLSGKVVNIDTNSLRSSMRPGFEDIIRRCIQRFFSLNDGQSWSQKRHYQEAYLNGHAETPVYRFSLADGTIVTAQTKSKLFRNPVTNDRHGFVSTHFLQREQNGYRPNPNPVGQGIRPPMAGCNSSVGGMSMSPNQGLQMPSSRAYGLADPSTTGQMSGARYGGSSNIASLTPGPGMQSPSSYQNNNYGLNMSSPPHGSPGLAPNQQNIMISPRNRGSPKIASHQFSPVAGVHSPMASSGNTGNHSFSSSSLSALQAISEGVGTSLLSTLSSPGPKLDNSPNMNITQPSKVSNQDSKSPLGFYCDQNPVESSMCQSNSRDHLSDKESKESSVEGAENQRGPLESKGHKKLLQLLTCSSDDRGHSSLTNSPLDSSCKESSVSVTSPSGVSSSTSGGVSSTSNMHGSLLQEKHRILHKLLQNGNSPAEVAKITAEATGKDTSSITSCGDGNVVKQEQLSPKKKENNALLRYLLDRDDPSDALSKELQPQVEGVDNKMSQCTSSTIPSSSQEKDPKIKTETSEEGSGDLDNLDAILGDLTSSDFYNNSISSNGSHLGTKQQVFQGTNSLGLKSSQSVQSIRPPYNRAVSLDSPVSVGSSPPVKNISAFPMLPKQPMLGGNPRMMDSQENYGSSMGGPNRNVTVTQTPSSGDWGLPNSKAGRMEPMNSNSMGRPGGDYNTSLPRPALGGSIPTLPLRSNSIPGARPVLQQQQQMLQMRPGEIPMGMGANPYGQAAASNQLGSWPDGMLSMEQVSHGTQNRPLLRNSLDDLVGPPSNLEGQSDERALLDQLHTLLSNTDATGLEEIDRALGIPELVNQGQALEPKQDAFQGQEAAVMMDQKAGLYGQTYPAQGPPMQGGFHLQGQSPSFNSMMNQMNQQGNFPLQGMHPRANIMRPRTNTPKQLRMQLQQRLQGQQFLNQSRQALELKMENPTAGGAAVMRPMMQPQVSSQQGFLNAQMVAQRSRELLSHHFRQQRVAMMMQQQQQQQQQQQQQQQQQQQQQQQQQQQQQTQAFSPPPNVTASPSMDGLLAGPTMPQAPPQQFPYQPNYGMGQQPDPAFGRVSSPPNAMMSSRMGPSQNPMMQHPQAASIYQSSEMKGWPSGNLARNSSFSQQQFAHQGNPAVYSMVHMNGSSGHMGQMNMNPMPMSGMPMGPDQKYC

[3] = target: Peroxisome proliferator-activated receptor gamma/Nuclear receptor coactivator 2 (Homo sapiens, UniProt P37231); assay: TR-FRET dose response biochemical High Throughput Screening assay for agonists of the steroid receptor coactivator 2 (SRC-2) recruitment by the peroxisome proliferator-activated receptor gamma (PPAR gamma): non-selective agonists. [Related pubchem assays: 1297, 1032 ]; assay type: functional
Peroxisome proliferator-activated receptor gamma/Nuclear receptor coactivator 2, sequence (P37231 whole entry): as the sequence (P37231 whole entry) above
Peroxisome proliferator-activated receptor gamma/Nuclear receptor coactivator 2, sequence (Q15596 whole entry, further chain): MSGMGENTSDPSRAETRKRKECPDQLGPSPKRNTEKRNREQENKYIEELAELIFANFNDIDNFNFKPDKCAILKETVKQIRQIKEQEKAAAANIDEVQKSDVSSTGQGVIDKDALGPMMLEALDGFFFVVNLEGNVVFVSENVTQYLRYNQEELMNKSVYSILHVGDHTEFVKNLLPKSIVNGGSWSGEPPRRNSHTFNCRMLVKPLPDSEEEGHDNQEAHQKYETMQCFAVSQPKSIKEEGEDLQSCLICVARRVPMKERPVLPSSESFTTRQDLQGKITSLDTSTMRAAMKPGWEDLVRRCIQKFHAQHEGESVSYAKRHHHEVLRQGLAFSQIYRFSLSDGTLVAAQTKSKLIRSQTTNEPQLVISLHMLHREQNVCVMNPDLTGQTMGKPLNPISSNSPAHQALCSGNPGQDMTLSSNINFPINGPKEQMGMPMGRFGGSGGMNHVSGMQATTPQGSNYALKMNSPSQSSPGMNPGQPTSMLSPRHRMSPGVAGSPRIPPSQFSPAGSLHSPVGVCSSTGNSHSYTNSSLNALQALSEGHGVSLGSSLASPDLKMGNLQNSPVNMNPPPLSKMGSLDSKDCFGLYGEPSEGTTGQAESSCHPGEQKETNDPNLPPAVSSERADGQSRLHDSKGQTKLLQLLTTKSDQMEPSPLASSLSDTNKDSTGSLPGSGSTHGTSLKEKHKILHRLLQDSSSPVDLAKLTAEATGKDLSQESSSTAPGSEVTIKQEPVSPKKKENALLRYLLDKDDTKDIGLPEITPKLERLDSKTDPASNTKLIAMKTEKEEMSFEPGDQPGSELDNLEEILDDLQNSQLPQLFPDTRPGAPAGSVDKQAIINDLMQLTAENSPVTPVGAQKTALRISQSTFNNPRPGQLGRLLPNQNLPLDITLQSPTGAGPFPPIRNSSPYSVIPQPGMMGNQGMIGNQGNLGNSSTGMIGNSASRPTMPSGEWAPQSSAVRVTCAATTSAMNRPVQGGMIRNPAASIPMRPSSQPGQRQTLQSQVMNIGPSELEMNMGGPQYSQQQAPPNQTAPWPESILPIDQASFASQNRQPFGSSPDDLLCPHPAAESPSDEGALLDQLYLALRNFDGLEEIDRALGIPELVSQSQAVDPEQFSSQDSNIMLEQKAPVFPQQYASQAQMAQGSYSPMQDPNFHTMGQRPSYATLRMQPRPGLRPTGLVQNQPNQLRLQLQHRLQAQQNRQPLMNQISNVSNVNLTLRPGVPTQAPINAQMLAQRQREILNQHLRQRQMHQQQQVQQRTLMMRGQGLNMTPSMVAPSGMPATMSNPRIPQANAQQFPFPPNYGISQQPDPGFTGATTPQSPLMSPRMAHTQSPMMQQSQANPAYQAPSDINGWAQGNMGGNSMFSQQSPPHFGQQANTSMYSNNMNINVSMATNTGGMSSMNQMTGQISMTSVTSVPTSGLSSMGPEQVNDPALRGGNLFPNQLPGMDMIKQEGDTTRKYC

[4] = target: T1, Alkaline phosphatase, tissue-nonspecific isozyme (Homo sapiens, UniProt P05186); assay: human TNAP enzyme inhibitors, SAR follow-up, biochemical, luminescent, dose response (AID 1056)
T1 sequence (P05186 whole entry): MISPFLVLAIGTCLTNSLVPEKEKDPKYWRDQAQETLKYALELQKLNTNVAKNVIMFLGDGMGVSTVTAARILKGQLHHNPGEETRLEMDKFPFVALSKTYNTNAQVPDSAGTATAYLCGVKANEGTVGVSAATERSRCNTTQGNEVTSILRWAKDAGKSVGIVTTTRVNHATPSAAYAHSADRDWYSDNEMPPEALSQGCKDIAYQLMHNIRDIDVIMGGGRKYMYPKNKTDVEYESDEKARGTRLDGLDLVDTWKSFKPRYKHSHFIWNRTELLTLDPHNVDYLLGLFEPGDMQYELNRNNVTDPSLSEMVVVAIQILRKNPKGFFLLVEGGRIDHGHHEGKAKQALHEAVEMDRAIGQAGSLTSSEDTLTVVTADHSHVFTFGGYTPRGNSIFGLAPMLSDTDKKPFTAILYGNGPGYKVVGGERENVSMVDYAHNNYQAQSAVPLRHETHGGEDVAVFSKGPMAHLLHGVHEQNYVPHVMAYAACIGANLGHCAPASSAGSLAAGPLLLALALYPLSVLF

[5] = target: Glyceraldehyde-3-phosphate dehydrogenase (Homo sapiens, UniProt P04406)
Glyceraldehyde-3-phosphate dehydrogenase, sequence (P04406 whole entry): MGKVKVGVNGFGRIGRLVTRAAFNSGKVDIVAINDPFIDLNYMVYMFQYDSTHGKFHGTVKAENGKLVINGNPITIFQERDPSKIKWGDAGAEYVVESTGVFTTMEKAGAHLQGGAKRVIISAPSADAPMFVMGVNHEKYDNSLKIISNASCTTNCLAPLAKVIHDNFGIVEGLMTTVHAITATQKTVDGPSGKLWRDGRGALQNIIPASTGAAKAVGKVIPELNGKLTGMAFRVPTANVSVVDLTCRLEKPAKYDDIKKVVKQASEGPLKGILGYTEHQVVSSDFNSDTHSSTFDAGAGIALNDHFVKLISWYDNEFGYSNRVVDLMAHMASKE

[6] = target: T2, ORF 73 (Human herpesvirus 8, UniProt O40947); assay: inhibitors of C-LANA binding to LBS DNA, dose response, biochemical, fluorescence polarization, cherry-picked samples (AID 504725); parameters: species or system Human gammaherpesvirus 8;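 also: fluorescence polarization of a labeled DNA duplex reporting LANA DNA binding; potency is for inhibitors that block LANA binding to the DNA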
T2 sequence (O40947 whole entry): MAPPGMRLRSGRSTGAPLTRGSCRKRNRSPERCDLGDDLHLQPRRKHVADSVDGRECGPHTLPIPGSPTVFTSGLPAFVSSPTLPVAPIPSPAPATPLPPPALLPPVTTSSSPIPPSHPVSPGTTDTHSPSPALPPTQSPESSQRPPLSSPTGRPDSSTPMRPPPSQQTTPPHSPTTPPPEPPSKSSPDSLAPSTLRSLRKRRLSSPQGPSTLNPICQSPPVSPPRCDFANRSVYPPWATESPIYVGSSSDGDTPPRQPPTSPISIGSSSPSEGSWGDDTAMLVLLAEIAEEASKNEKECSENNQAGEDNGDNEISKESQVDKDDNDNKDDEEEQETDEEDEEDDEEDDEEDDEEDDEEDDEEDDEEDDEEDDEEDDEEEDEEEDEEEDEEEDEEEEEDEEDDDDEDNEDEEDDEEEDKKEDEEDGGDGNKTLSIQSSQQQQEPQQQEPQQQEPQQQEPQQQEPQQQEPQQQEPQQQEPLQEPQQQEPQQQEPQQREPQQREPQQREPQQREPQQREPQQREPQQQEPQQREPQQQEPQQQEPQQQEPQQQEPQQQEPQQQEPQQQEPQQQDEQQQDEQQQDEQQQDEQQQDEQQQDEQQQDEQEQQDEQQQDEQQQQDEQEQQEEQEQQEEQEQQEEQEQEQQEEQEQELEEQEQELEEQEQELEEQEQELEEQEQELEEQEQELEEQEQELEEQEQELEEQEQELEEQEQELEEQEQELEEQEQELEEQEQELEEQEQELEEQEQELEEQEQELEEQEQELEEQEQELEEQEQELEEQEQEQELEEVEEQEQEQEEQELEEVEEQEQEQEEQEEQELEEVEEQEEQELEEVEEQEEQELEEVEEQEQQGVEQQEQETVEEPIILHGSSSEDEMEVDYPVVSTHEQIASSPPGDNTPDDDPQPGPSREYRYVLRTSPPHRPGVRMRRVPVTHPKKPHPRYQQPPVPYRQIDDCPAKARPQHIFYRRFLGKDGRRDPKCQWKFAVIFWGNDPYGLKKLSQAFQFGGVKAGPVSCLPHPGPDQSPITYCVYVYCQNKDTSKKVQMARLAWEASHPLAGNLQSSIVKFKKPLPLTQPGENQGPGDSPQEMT

[7] = system: HeLa; assay: HeLa cell cytotoxicity, dose response, cytotoxicity control, 24 h, cherry-picked samples (AID 504726); assay type: functional, cell-based; settings: Homo sapiens;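 also: potency for cytotoxicity as loss of luminescence signal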
[8] = target: T3, Rac GTPase-activating protein 1 (Homo sapiens, UniProt Q9H0H5); assay: MgcRacGAP GTPase-activating activity inhibitors, confirmation, biochemical, ADP Hunter fluorescence, primary and confirmatory (AID 624330); assay type: functional
T3 sequence (Q9H0H5 whole entry): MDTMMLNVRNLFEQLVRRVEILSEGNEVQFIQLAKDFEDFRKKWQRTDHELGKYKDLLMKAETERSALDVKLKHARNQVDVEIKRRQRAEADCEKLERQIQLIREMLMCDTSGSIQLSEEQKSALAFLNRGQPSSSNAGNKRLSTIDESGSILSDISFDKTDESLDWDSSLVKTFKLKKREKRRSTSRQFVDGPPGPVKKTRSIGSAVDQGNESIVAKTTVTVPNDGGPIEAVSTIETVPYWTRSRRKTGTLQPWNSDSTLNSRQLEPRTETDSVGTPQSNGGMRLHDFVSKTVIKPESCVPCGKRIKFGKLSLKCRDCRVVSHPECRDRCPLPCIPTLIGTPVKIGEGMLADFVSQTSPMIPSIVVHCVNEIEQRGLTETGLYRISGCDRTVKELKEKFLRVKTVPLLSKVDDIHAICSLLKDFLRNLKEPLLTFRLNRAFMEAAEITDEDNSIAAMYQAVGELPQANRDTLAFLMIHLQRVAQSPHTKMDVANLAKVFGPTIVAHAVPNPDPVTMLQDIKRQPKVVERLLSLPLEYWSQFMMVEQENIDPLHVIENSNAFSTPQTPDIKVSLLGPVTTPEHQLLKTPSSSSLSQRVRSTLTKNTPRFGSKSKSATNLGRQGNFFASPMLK

[9] = target: T4, Insulin-degrading enzyme (Homo sapiens, UniProt P14735); assay: activators of recombinant IDE enzyme, dose response, counter-screen for IDE activator project, biochemical, fluorescence polarization (AID 588681)
T4 sequence (P14735 whole entry): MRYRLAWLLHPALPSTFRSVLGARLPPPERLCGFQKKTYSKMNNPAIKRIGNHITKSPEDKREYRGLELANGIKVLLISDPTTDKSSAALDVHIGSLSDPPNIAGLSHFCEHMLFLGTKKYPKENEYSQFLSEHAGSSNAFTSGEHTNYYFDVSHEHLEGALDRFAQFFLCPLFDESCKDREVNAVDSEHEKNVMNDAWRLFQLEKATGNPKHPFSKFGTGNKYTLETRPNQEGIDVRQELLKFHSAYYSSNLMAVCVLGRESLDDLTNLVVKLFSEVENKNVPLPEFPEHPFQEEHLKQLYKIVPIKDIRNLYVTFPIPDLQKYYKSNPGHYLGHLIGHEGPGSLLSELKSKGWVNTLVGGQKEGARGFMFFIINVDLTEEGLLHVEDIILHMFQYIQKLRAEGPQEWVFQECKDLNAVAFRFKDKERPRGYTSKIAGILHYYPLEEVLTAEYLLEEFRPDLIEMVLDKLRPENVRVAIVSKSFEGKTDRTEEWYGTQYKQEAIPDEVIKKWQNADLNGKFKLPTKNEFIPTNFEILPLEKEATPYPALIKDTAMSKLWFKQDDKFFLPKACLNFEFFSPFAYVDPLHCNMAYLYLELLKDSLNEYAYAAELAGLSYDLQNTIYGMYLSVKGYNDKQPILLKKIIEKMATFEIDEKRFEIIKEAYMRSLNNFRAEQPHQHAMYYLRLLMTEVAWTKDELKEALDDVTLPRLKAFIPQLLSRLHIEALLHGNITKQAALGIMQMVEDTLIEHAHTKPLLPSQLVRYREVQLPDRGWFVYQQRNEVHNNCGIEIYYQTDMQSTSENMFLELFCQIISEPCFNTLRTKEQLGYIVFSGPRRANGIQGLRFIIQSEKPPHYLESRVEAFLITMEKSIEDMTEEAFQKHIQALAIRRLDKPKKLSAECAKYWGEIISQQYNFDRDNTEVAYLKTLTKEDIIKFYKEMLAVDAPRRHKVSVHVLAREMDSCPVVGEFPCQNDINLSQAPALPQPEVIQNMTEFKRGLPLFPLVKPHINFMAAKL

[10] = system: HEK293; assay: HEK cell cytotoxicity by LDH release, dose response, cytotoxicity control for IDE activator project, fluorescence, HEK cells (AID 588440); assay type: functional, cell-based; settings: Homo sapiens;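 also: cytotoxicity by LDH release measuring loss of membrane integrity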
[11] = target: Nonstructural protein 1 (Influenza A virus, UniProt Q194T2); assay type: functional, Influenza A virus (A/California/07/2009(H1N1))
Nonstructural protein 1, sequence (Q194T2 whole entry): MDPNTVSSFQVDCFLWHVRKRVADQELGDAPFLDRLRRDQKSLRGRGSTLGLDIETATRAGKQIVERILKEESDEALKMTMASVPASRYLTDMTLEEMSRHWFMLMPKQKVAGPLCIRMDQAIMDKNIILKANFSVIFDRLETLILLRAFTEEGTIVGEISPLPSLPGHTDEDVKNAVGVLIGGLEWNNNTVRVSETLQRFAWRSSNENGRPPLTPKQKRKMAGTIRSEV

[12] = system: HEK293; assay: optical interference in Abeta FP readout, dose response, artefact control for IDE activator project, biochemical, fluorescence polarization (AID 588442); assay type: functional, cell-based; settings: Homo sapiens
[13] = HeLa cell cytotoxicity, dose response, cytotoxicity control for MgcRacGAP inhibitor project (AID 624300); assay type: functional
[14] = target: T4, Insulin-degrading enzyme; assay: activators of endogenous IDE in HEK cells, dose response, cell-based, fluorescence polarization (AID 588439); assay type: functional

With COc1ccc2nc(SCc3cccnc3)c(C#N)cc2c1 the EC50 [1] was 9.56 µM (active), the EC50 [2] was 22.1 µM (not active) and the EC50 [3] was 9.26 µM (active).

In the case of O=C(CSc1ncnc2c1oc1ccccc12)Nc1nc2ccccc2s1, the EC50 [1] is reported as > 79.4 µM (inactive), the EC50 [2] is reported as > 79.4 µM (not active) and the EC50 [3] is reported as > 79.4 µM (not active).

With Cc1c(C(=O)O)nnn1-c1ccc(F)cc1 the IC50 [4] was > 100 µM (inactive) and the IC50 [5] was > 100 µM (not active).

In the case of Nc1ccc2c3[nH]c4cc(N)ccc4cc-3nc2c1, the AC50 [6] is reported as 0.758 µM (active), the AC50 [7] is reported as 7.72 µM (active) and the IC50 [8] is reported as 44.7 µM (active). For the same compound, the EC50 [9] was > 54.7 µM (inactive), the IC50 [10] was > 89.2 µM (inactive) and the IC50 [11] was 21.1 µM (active). For the same compound, the EC50 [12] was > 54.7 µM (inactive), the CC50 [13] was 8.81 µM (active) and the EC50 [14] was > 54.7 µM (inactive).
